The values below come from patent US10100001B2, “Adenylyl cyclase inhibitors for neuropathic and inflammatory pain” (Purdue Research Foundation, priority 2015, dated 2018).

Test [1] deals with T1, AC1 (Homo sapiens, UniProt Q08828).
T1 construct: expressed in transfected cells
The test can be described thus: Inhibition of A23187-mediated (Ca2+-stimulated) cAMP accumulation in HEK cells stably expressing AC1. It is filed as cell-based. Particulars: for inhibition at 4 µM / inhibition at 40 µM: HEK293, read-out: AC1 Inhibition Percentage; for inhibition at 4 µM: 4 μM compound; for inhibition at 40 µM: 40 μM compound; for IC50: HEK cells stably expressing AC1, inhibitors 30 min, then 3 μM A23187 with IBMX, average and S.E.M. of at least three independent experiments, read-out: IC50 for inhibition of the A23187-mediated cAMP response of AC1. On the procedure:
HEK cells stably expressing AC1 were treated with inhibitors for 30 min, and subsequently incubated with 3 μM A23187 in the presence of 2 mM IBMX. Data represent the average and S.E.M. of at least three independent experiments.
A23187 is a Ca2+ ionophore, which promotes Ca2+ binding to calmodulin in the cells and, subsequent stimulation of AC1.
HEK (human embryonic kidney) cells stably expressing human AC1, were cultured in Dubelcco's Modified Eagle Medium (Life Technologies, Grand Island, N.Y.) supplemented with 5% bovine calf serum (Hyclone, Logan, Utah), 5% fetal clone I (Hyclone, Logan, Utah), Antibiotic-Antimycotic (Life Technologies, Grand Island, N.Y.), and G418 (Invivogen, San Diego, Calif.). The cells were grown to confluency in 15 cm disses, harvested using Cell Dissociation Buffer (Life Technologies, Grand Island, N.Y.), and resuspended in 4 ml of fetal bovine serum (Hyclone, Logan, Utah) containing 10% dimethyl sulfoxide (Sigma-Aldrich, St. Louis, Mo.). 1 ml of cell suspension was added to cryovials that were incubated overnight at −80° C. in a CoolCell device (BioCision, Larkspur, Calif.) for cryopreservation. On the following day, cryovials were stored in liquid N2 until the assay day.
Cryopreserved HEK-AC1 cells were thawed in a 37° C. water-bath, resuspended in 10 ml optiMEM (Life Technologies, Grand Island, N.Y.) and centrifuged at 500×g for 5 min. The cells were resuspended in 10 ml optiMEM and the centrifugation step was repeated. Cells were then resuspended in 1 ml optiMEM and counted using a Countess automated cell counter (Life Technologies, Grand Island, N.Y.). Cells were added to a white, flat bottom, low-volume, tissue culture-treated 384 well plate (PerkinElmer, Shelton, Conn.) at a final density of 2500 cells/well. The plate was centrifuged for 1 min at 100×g and incubated in a 37° C. humidified incubator for 1 h. […] Following this incubation A23187 (Sigma-Aldrich, St. Louis, Mo.) (3 μM final concentration) containing 3-isobutyl-1-methylxanthine (Sigma-Aldrich, St. Louis, Mo.) (0.5 mM final concentration) was added. The plate was centrifuged for 1 min at 100×g and incubated at room temperature for 1 h. Cyclic AMP accumulation was measured using Cisbio's dynamic 2 kit (Cisbio Bioassays, Bedford, Mass.) according to the manufacturer's instructions. Plates were analyzed for fluorescent emissions at 620 nm and 665 nm using 330 nm as the excitation wavelength in a Cytation 3 Cell Imaging Multi-Mode Reader (Biotek, Winooski, Vt.), and ratiometric analysis was carried out by dividing the 665 nm emissions by the 620 nm emissions to extrapolate the cAMP concentrations from a cAMP standard curve. The data represent the average of at least three independent experiments ran in duplicate.
On the technique in general: Cyclic AMP is a second messenger, typically raised through Gs and lowered through Gi signalling.

The test system of test [2] is neuroinflammatory and neuropathic pain rodent models. Particulars: cited from earlier work.

T1 sequence (Q08828 whole entry): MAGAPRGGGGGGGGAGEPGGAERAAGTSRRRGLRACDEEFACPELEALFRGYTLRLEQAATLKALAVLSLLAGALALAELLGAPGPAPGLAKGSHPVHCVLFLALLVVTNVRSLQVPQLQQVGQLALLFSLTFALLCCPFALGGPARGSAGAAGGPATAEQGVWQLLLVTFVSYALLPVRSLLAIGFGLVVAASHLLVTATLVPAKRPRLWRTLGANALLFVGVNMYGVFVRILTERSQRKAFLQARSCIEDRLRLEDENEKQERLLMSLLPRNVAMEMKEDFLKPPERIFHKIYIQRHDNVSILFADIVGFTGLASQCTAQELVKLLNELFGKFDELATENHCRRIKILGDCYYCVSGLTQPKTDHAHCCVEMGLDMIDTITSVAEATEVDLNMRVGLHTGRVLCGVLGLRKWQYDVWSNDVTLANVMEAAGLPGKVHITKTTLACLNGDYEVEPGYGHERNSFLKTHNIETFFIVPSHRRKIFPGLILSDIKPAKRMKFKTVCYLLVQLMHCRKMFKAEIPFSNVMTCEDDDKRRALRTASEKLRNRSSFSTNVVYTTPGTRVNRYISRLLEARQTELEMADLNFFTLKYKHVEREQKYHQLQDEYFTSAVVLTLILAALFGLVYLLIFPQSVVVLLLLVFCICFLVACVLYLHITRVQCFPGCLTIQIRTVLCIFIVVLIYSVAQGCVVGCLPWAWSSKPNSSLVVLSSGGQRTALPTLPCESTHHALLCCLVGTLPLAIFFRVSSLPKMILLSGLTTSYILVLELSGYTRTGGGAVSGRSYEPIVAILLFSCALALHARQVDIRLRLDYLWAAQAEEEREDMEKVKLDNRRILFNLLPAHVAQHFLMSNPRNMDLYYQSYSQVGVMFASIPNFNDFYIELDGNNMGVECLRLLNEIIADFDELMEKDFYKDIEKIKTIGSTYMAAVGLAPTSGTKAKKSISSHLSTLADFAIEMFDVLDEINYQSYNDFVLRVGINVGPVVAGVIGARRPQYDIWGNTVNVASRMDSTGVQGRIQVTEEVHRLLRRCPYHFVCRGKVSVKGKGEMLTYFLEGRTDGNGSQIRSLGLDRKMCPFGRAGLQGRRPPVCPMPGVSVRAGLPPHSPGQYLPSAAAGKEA

As a reminder, the inhibition is the drop in the measured response relative to a control, in per cent. In the case of `CCOC(=O)c1ccc(/C=C/CN(C)Cc2cccc3ccccc23)cc1` [Compound 7fi, (E)-ethyl 4-(3-(methyl(naphthalen-1-ylmethyl)amino)prop-1-enyl)benzoate], in test [1], the inhibition at 4 µM is -40% and the inhibition at 40 µM worked out at 85%.
The like results for `COc1ccc(/C=C/CN(C)Cc2cccc3ccccc23)cc1` [Compound 7fj, (E)-3-(4-methoxyphenyl)-N-methyl-N-(naphthalen-1-ylmethyl)prop-2-en-1-amine] were, in that order, -14% and 82%.
In the case of `COc1ccc(/C=C/CN(C)Cc2cccc3ccccc23)cc1OC` [Compound 7fk, (E)-3-(3,4-dimethoxyphenyl)-N-methyl-N-(naphthalen-1-ylmethyl)prop-2-en-1-amine], in test [1], the inhibition at 4 µM was -14% and the inhibition at 40 µM was found to be 33%.
Turning to `CN(C/C=C/c1cccc([N+](=O)[O-])c1)Cc1cccc2ccccc12` [Compound 7fl, (E)-N-methyl-N-(naphthalen-1-ylmethyl)-3-(3-nitrophenyl)prop-2-en-1-amine], in test [1], the inhibition at 4 µM is -28% and the inhibition at 40 µM came to 62%.
The like results for `COC(=O)CCCN(C/C=C/c1ccccc1)Cc1ccc(F)cc1` [Compound 7ga, methyl 4-(cinnamyl(4-fluorobenzyl)amino)butanoate] were, in that order, 20% and 67%.
The like results for `COC(=O)CCCN(C/C=C/c1ccc(C)cc1)Cc1ccc(F)cc1` [Compound 7gb, (E)-methyl 4-((4-fluorobenzyl)(3-p-tolylallyl)amino)butanoate] were, in that order, -3% and 64%.
The like results for `COC(=O)CCCN(C/C=C/c1ccc(Cl)cc1)Cc1ccc(F)cc1` [Compound 7gc, (E)-methyl 4-((3-(4-chlorophenyl)allyl)(4-fluorobenzyl)amino)butanoate] were, in that order, -24% and 70%.
Take `CCOC(=O)c1ccc(/C=C/CN(CCCC(=O)OC)Cc2ccc(F)cc2)cc1` [Compound 7gd, (E)-ethyl 4-(3-((4-fluorobenzyl)(4-methoxy-4-oxobutyl)amino)prop-1-enyl)benzoate]: in test [1], the inhibition at 4 µM was -24% and the inhibition at 40 µM is 71%.
The like results for `Cc1ccc(S(=O)(=O)N2CCCN(C/C=C/c3ccccc3)CC2)cc1` [Compound 7ha, 1-cinnamyl-4-tosyl-1,4-diazepane] were, in that order, 6% and 73%.
With `Cc1ccc(/C=C/CN2CCCN(S(=O)(=O)c3ccc(C)cc3)CC2)cc1` [Compound 7hb, (E)-1-(3-p-tolylallyl)-4-tosyl-1,4-diazepane], in test [1], the inhibition at 4 µM was -26% and the inhibition at 40 µM came to 27%.
The like results for `Cc1ccc(S(=O)(=O)N2CCCN(C/C=C/c3ccc(Cl)cc3)CC2)cc1` [Compound 7hc, (E)-1-(3-(4-chlorophenyl)allyl)-4-tosyl-1,4-diazepane] were, in that order, -5.5% and 85%.
The like results for `COc1ccc2c(c1)C(c1ccccc1)CN(CC=Cc1ccccc1)CC2` (stereo not drawn) [Compound 7ja, 3-cinnamyl-8-methoxy-1-phenyl-2,3,4,5-tetrahydro-1H-benzo[d]azepine] were, in that order, 72% and 95%.
As a reminder, the IC50 is the concentration that inhibits the measured activity by half. Take `COc1ccc2c(c1)C(c1ccccc1)CN(C/C=C/c1ccc(C)cc1)CC2` (stereo not drawn) [Compound 7jb, (E)-8-methoxy-1-phenyl-3-(3-p-tolylallyl)-2,3,4,5-tetrahydro-1H-benzo[d]azepine]: in test [1], the inhibition at 4 µM stood at 43%, the inhibition at 40 µM was 90% and the IC50 was found to be 16.7 µM.
For `COc1ccc2c(c1)C(c1ccccc1)CN(C/C=C/c1ccc(I)cc1)CC2` (stereo not drawn) [Compound 7jc, (E)-3-(3-(4-iodophenyl)allyl)-8-methoxy-1-phenyl-2,3,4,5-tetrahydro-1H-benzo[d]azepine], in test [1], the inhibition at 4 µM was -3% and the inhibition at 40 µM amounted to 51%.
Regarding `COc1ccc2c(c1)C(c1ccccc1)CN(C/C=C/c1ccc(F)cc1)CC2` (stereo not drawn) [Compound 7jd, (E)-3-(3-(4-fluorophenyl)allyl)-8-methoxy-1-phenyl-2,3,4,5-tetrahydro-1H-benzo[d]azepine], in test [1], the inhibition at 4 µM came out at 49%, the inhibition at 40 µM was determined as 91% and the IC50 was found to be 14.8 µM.
The like results for `COc1ccc2c(c1)C(c1ccccc1)CN(C/C=C/c1ccc(Cl)cc1)CC2` (stereo not drawn) [Compound 7je, (E)-3-(3-(4-chlorophenyl)allyl)-8-methoxy-1-phenyl-2,3,4,5-tetrahydro-1H-benzo[d]azepine] were, in that order, 33%, 78% and 9.1 µM.
With `COc1ccc2c(c1)C(c1ccccc1)CN(C/C=C/c1ccc(C(F)(F)F)cc1)CC2` (stereo not drawn) [Compound 7jf, (E)-8-methoxy-1-phenyl-3-(3-(4-(trifluoromethyl)phenyl)allyl)-2,3,4,5-tetrahydro-1H-benzo[d]azepine], in test [1], the inhibition at 4 µM was 17% and the inhibition at 40 µM was determined as 88%.
As to `COc1ccc2c(c1)C(c1ccc(Br)cc1)CN(C/C=C/c1ccc(C)cc1)CC2` (stereo not drawn) [Compound 7kb, (E)-1-(4-bromophenyl)-8-methoxy-3-(3-p-tolylallyl)-2,3,4,5-tetrahydro-1H-benzo[d]azepine], in test [1], the inhibition at 4 µM came out at 8% and the inhibition at 40 µM was 11%.
As to `COc1ccc2c(c1)C(c1ccc(Br)cc1)CN(C/C=C/c1ccc(Cl)cc1)CC2` (stereo not drawn) [Compound 7kc, (E)-1-(4-bromophenyl)-3-(3-(4-chlorophenyl)allyl)-8-methoxy-2,3,4,5-tetrahydro-1H-benzo[d]azepine], in test [1], the inhibition at 4 µM was 32% and the inhibition at 40 µM was 32%.
As for `Nc1ncnc2c1ncn2CCNCCCCCO` [NB001], in test [2], the analgesic effects entry is “analgesic effects”.
